From PMC10649274 (International Journal of Molecular Sciences, 2023)
“Also recorded” adds a separate entry of the source. Read-outs that look alike come from different tables or passages of the source.

What was measured:
native NMDA receptors [1] = settings: cited from earlier work; for IC50: −80 mV holding voltage, native NMDA receptors, earlier papers of the authors, read-out: IC50, −80 mV
[2] = system: rat retinal excitotoxicity model; settings: cited from earlier work
native NMDA receptors [3] = experiment: Whole-cell patch clamp of NMDA plus glycine induced currents in isolated CA1 pyramidal neurons; format: cell-based, rat; settings: for change of inhibition with increase of NMDA concentration / inhibition at 1 mM NMDA: −30 mV
Protocol: The rats were anesthetised with sevoflurane and then decapitated. The brains were brought out quickly and cooled to 2–4 °C. […] All experiments were performed at room temperature.
Vibrodissociation method was used to free CA1 pyramidal neurons from slices. This method allows for isolating cells without enzymatic treatment and keeping them in more native state. Pyramidal cells were isolated from the stratum pyramidale and distinguished from non-pyramidal cells on the basis of pyramidal-like somata and preserved apical dendrites.
To record membrane currents in response to applications of NMDA and glycine, the whole-cell configuration of patch clamp technique was used. Series resistance (<20 MΩ) was compensated by 70–80% and monitored during experiments. Only cells with stable holding currents were used in further analysis. The current signals were amplified using EPC-8 (HEKA Electronics, Lambrecht, Germany), filtered at 5 kHz, sampled, and stored on a personal computer. RSC-200 (BioLogic Science Instruments, Claix, France) perfusion system was used to apply the drugs under computer control. […] The pipettes with resistance of 2–5 MΩ were filled with the following solution (in mM): CsF 100, CsCl 40, NaCl 5, CaCl2 0.5, EGTA 5, HEPES 10 (pH adjusted to 7.2 with CsOH). […] Other reagents were purchased from MedChemExpress (Monmouth Junction, NJ, USA), Sigma (St. Louis, MO, USA), or Tocris Bioscience (Bristol, UK).
NMDA receptors were activated with 100 µM NMDA plus 10 µM glycine unless otherwise stated. […] Kinetics of transient processes of more than 20 ms duration were approximated with single or double exponential functions. In case of double exponential fitting, the weighted time constant was used.

native NMDA receptors [4] = settings: cited from earlier work
native NMDA receptors [5] = experiment: Analysis of voltage dependence of NMDA receptor block (Woodhull model with voltage-independent component, Equation (2)); format: cell-based, rat
Protocol: NMDA receptors were activated with 100 µM NMDA plus 10 µM glycine unless otherwise stated. The percentages of blocking of the steady-state or peak currents by different drug concentrations were measured at −80, −30 or +30 mV holding voltages. Kinetics of transient processes of more than 20 ms duration were approximated with single or double exponential functions. In case of double exponential fitting, the weighted time constant was used.
The voltage dependence of compounds’ action was analyzed with the classical Woodhull model with the addition of a voltage-independent component. […] Kb is the affinity of a drug for the channel, and δ is the electrical depth of the binding site. The δ value reflects the fraction of membrane electric field that the charged blocking molecule crosses on its pathway between the external media and the binding site in the channel.
Thus, we deduced Equation (2), taking it into account and assuming that the binding to the deep and shallow site is independent:(2) B=100−100/(1+C/(Kvd∗exp〖Fzδ/RTV〗)+C/Kvi+(C∗C)/((Kvd∗exp〖Fzδ/RTV〗∗Kvi))
In this equation, Kvd is the affinity of the drug to the deep site, Kvi—the affinity of the drug to the shallow site, and other parameters are the same as in Equation (1).
All experimental data are presented as the mean ± SD estimated from at least four experiments (cells). Significance of the effects was tested with t-tests. Differences were considered significant at p < 0.05. Concentration dependencies were approximated with Hill equation. Voltage dependencies were approximated with Equation (2). […] Approximation error values were taken as the precision measures.

[6] = Equation (2) with fixed zδ (0.55 mono-, 1.1 dicationic), reanalysis of earlier data [16],[17], read-out: Kvd, fixed zδ (converted)
[7] = Equation (2) with fixed zδ (0.55 mono-, 1.1 dicationic), reanalysis of earlier data [16],[17], read-out: Kvi, fixed zδ (converted)
[8] = fit with consensus zδ, read-out: binding constant for the deep site (Kvd)
[9] = Equation (2) fit, zδ free, reanalysis of the authors' earlier voltage dependence data [16],[17], read-out: Kvd
[10] = Equation (2) fit, zδ free, reanalysis of the authors' earlier voltage dependence data [16],[17], read-out: Kvi

| Kd (native NMDA receptors [5]; [6]) [µM] | Kd (native NMDA receptors [5]; [7]) [µM] | Kd (native NMDA receptors [5]; [8]) [µM] | Kd (native NMDA receptors [5]; [9]) [µM] | Kd (native NMDA receptors [5]; [10]) [µM] | Structure (SMILES) | inhibition of native NMDA receptors (native NMDA receptors [1]) | IC50 (native NMDA receptors [1]) [µM] | retinal protection [2] | inhibition at high NMDA concentrations (native NMDA receptors [3]; 5 µM, high NMDA concentrations) | type of channel block (interaction with channel gate) (native NMDA receptors [1]) | change of inhibition with increase of NMDA concentration (native NMDA receptors [3]) | inhibition at 1 mM NMDA (native NMDA receptors [3]) | change of inhibition with increase of NMDA concentration from 30 to 1000 µM (native NMDA receptors [3]; −80 mV) | voltage dependence of NMDA receptor inhibition (native NMDA receptors [4]) | change of inhibition with increase of NMDA concentration from 30 to 1000 µM (native NMDA receptors [3]; holding voltage not stated) |
| --- | --- | --- | --- | --- | --- | --- | --- | --- | --- | --- | --- | --- | --- | --- | --- |
| – | – | – | – | – | CN(C)C(=O)COC(=O)Cc1ccc(OC(=O)c2ccc(NC(=N)N)cc2)cc1 [Camostat] | low activity; also recorded: practically ineffective | > 100 | did not demonstrate retinal protection activities | – | – | – | – | – | – | – |
| – | – | – | – | – | NC(CCCP(=O)(O)O)C(=O)O [D-AP5] | – | – | – | became weak, decaying to zero | – | – | – | – | – | – |
| 5000 | 3.16 | > 1000 | – | – | N=C(N)c1ccc(-c2cc3ccc(C(=N)N)cc3[nH]2)cc1 [DAPI] | – | 3.1 ± 0.6 | – | – | foot-in-the-door | agonist-dependent | remained significant | agonist-dependent | Completely voltage-independent | – |
| 1500 | 14 ± 2 | > 1000 | ~600 | 14 ± 2 | N=C(N)c1ccc(/N=N/Nc2ccc(C(=N)N)cc2)cc1 [Diminazene] | – | 13 ± 3 | – | – | foot-in-the-door | significant attenuation | remained significant | did not differ significantly | complex voltage dependence | – |
| 21.8 | 3.3 | – | 20 ± 5 | 3.4 ± 0.4 | N=C(N)c1ccc(-c2ccc(-c3ccc(C(=N)N)cc3)o2)cc1 [Furamidine] | – | 0.64 ± 0.13 | – | – | foot-in-the-door | – | – | – | strongly voltage-dependent | not attenuated significantly |
